Experiments:
[1] = tested on: PIG(-P) receptor at hcDIGs; assay: Competition of unlabeled PIG(-P) with radiolabeled YCN-PIG binding to hcDIGs; parameters: species or system rat; conditions: for Binding affinity: hcDIGs of rat adipocytes; for efficacy in the competition assay (displacement of radiolabeled YCN-PIG from hcDIGs): unlabeled competitor
Description: (§1) 10 μl, of radiolabeled YCN-PIG or IcGce1p (60,000-80,000 dpm/nmol, final conc. 5 μM) was added to 40 μl of suspended plasma membranes, microsomes or hc/IcDIGs (40-80 μg of protein) in binding buffer in the absence or presence of unlabeled competitor (as indicated in the figure legends) in a total volume of 100 μl and incubated (30 min, 4° C.). For separation of membranes from the incubation medium, 45 μl aliquots were carefully layered over 200 μl, oil layers consisting of dibutyl phthalate and dioctyl phthalate (1/1 by vol., final density 1.012) in case of plasma membranes/microsomes or dibutyl phthalate and dinonyl phthalate (1/9 by vol., final density […]) in case of hc/IcDIGs in 0.4 ml precooled (4° C.) centrifugation tubes (microtubes no. 72.700, Sarstedt, Germany). […] After rigorous shaking (16 h, 25° C.), the radioactivity was counted in 9 ml of ACSII scintillation cocktail (Beckman). Under these conditions, sticking to the tube walls and partitioning into the oil layer of both radiolabeled YCN-PIG and IcGce1p accounted for 50-120 dpm (i.e. less than 0.5% of total radioactivity used per incubation) and therefore was not considered for calculation of binding data. Typical recoveries of plasma membranes and microsomes were 78-85% and 65-80%, respectively, and of hcDIGs and IcDIGs 83-92% and 70-78%, respectively, according to protein determination.
Radiolabeled YCN−PIG (18,000-22,000 dpm) was incubated (1 h, 4° C.) with hcDIGs (6.5 μg protein) in the absence or presence of increasing amounts of unlabeled YCN-PIG, YCN+PIG37, YMN-PIG, PIG37 and YCN (Competition). The membrane fractions/DIGs were subjected to oil-layer-centrifugation, recovered with/from the pellet/top of the oil layer, solubilized and counted for radioactivity.

[2] = tested on: IcGce1p binding site at hcDIGs; assay: Competition of synthetic PIG(-P) with radiolabeled IcGce1p binding to hcDIGs; parameters: species or system rat
Description: (§2) 10 μl, of radiolabeled YCN-PIG or IcGce1p (60,000-80,000 dpm/nmol, final conc. 5 μM) was added to 40 μl of suspended plasma membranes, microsomes or hc/IcDIGs (40-80 μg of protein) in binding buffer in the absence or presence of unlabeled competitor (as indicated in the figure legends) in a total volume of 100 μl and incubated (30 min, 4° C.). […] After rigorous shaking (16 h, 25° C.), the radioactivity was counted in 9 ml of ACSII scintillation cocktail (Beckman). Under these conditions, sticking to the tube walls and partitioning into the oil layer of both radiolabeled YCN-PIG and IcGce1p accounted for 50-120 dpm (i.e. less than 0.5% of total radioactivity used per incubation) and therefore was not considered for calculation of binding data. […]
Radiolabeled Gce1p prepared from S. cerevisiae and treated with PI-specific PLC (B. cereus) was incubated (1 h, 4° C.) with hcDIGs (6.5 μg protein) isolated from untreated rat adipocytes in the absence or presence of unlabeled PIG-P. hcDIGs were subjected to oil-layer-centrifugation, solubilized and counted for radioactivity. […]

[3] = tested on: PIG(-P) receptor at hcDIGs; assay: Binding of radiolabeled YCN-PIG to hcDIGs (oil-layer centrifugation, Scatchard plot); parameters: species or system rat
Description: as §1, with “determination. […]” for “determination.”
Increasing amounts of radiolabeled YCN−PIG isolated from S. cerevisiae were incubated (1 h, 4° C.) with hcDIGs (6.5 μg protein), IcDIGs (6.5 μg), plasma membranes (47.5 μg) and microsomes (68 μg) from isolated rat adipocytes. The membrane fractions/DIGs were subjected to oil-layer-centrifugation, recovered with/from the pellet/top of the oil layer, solubilized and counted for radioactivity. Specific binding was calculated as the difference between radioactivity measured in the absence and presence of 10 μM unlabeled YCN−PIG. […]

IcDIGs = assay: Binding of radiolabeled YCN-PIG to IcDIGs; parameters: species or system rat; conditions: control adipocytes (no m-βCD)
Description: as §2
Radiolabeled YCN-PIG (12,000-18,000 dpm) was incubated (1 h, 4° C.) with the (proportional) amounts of hcDIGs and IcDIGs prepared from isolated rat adipocytes which had been pretreated (50 min, 30° C.) with increasing concentrations of m-βCD or left untreated. DIGs were subjected to oil-layer-centrifugation, recovered from top of the oil layer, solubilized and counted for radioactivity measured in the absence and presence of 10 μM unlabeled YCN-PIG. […]

[4] = tested on: CIR (115 kDa polypeptide); assay: [14C]NEM-labeling and trypsin/NaCl release of CIR from rat adipocytes; format: cell-based; conditions: adipocytes treated before labeling
Description: For trypsin/NaCl-treatment, 2 ml of adipocyte suspension (3.5×10^6 cells/ml) in KRH containing 5 mM glucose was incubated (20 min, 30° C.) in the presence of 100 μg/ml trypsin. Soy bean trypsin inhibitor (final conc. 100 μg/ml) and 2 ml of KRH containing 1 M NaCl and 0.5% BSA were added and the incubation (10 min, 22° C.) continued. For NEM-treatment, 1 ml of adipocyte suspension (3.5×10^6 cells/ml) in KRH containing 5 mM glucose was incubated (30 min, 25° C.) with NEM (1.5 mM final conc.) and then with DTT (15 mM final conc., 5 min). After the treatments, the cells were centrifuged (1500×g, 5 min, swing-out rotor) and the infranatant removed by suction. The cell suspension left (about 0.5 ml) was supplemented with 10 ml of KRH containing 0.5% BSA and then centrifuged again (500×g, 1 min, swing-out rotor). […] Proteins of the medium contained in the lower part of the tubes were precipitated (10% TCA, two acetone washes), suspended in Laemmli sample buffer and analyzed by SDS-PAGE. […]
Phosphorimages are shown from a typical experiment repeated three times with similar results. Quantitative evaluation of four different adipocyte incubations with triplicate measurements given as arbitrary units (mean±SD) with the amount of CIR released from trypsin/NaCl-treated control cells set at 100.

Substance | Binding affinity [1] | efficacy in the competition assay (displacement of radiolabeled YCN-PIG from hcDIGs) [1] | Competition of IcGce1p binding [2] | Bmax ([3]; Scatchard plot analysis, radiolabeled YCN-PIG) | Bmax higher vs untreated ([3]; hcDIGs from PI-specific PLC-pretreated adipocytes, Scatchard) [fold] | increase in binding of YCN-PIG to hcDIGs ([3]; hcDIGs from adipocytes pretreated with GPI-specific PL (PI-specific PLC / GPI-specific PLD)) [%] | YCN-PIG left associated with IcDIGs (IcDIGs) [%] | stimulation of trypsin/NaCl-dependent release of [14C]NEM-labeled CIR [4] [%]
HO—PO(H)O-6Manα1 (Manα1-2)-2-Manα1-6Manα1-4GluN1-6Ino-1,2-(cyclic)-phosphate [PIG37] | intermediate | significantly reduced efficacy | considerably less efficient |  |  |  |  | 
Tyr-Cys-Asn-NH—(CH2)2—OH [YCN] | low | very low activity | considerably less efficient |  |  |  |  | 
Tyr-Cys-Asn-NH—(CH2)2—O—PO(OH)O-6Manα1-2)2Manα1-6Manα1-4GluN1-6Ino-1,2-(cyclic)-phosphate [YCN-PIG, phosphoinositolglycan-peptide derived from yeast Gce1p GPI anchor; also chemically synthesized] | highest |  |  | 50-200 pmol per mg protein of hcDIGs | 2 to 3 | 200 | 20 | 
insulin: human insulin |  |  |  |  |  |  |  | 20
